According to patent US10988462B2, “Pyrazole compounds substituted with heteroaryl and pharmaceutical use thereof” (Japan Tobacco Inc., priority 2018, dated 2021):

Experiments:
[1] = test system: Salmonella typhimurium TA98; test: Ames test (reverse mutation test), pre-incubation method, strain TA98; details: TA98; in the presence of S9 mix
Procedure: (§1) Ames Test (Reverse Mutation Test)
(§2) Metabolites 1 to 3 and Metabolites A to E were each tested herein. The purpose of this test is to evaluate the potential of each metabolite to induce reverse mutations in the standard strains of Salmonella typhimurium (TA98, TA1537, TA100, and TA1535) and Escherichia coli (WP2uvrA), in either the presence or absence of a rat liver metabolic activation system (S9 mix).
(§3) The solvent used herein was dimethyl sulfoxide (DMSO, 100 μL/plate).
(§4) The test was performed by the pre-incubation method with or without S9 mix. When the test was performed without S9 mix, sodium phosphate buffer solution (pH 7.4) was added.
(§5) 0.5 mL of S9 mix or 0.5 mL of 0.1 mol/L sodium phosphate buffer solution (pH 7.4), and 0.1 mL of the bacterial culture solution were added to a test tube containing 0.1 mL of the negative control formulation (DMSO alone), the metabolite, or the positive control formulation. The mixtures were pre-incubated at 37° C. for 20 minutes while shaking. After the pre-incubation period, 2 mL of top agar were added and the mixtures were vortex-mixed and seeded onto plates. Two plates per treatment were used. Each plate was incubated at 37±1° C. for 48 hours or more and the revertant colonies were counted. The mean number of revertant colonies for each treatment plate was then calculated. The presence or absence of growth inhibition due to any antibacterial effect of the test article and precipitation of the test article was observed grossly or under a stereomicroscope. […] Evaluation was based on mean values with no statistical comparisons being used.

[2] = test system: Salmonella typhimurium TA1537; test: Ames test (reverse mutation test), pre-incubation method, strain TA1537; format: cell-based; details: TA1537
Procedure: as §1, §2, §3, §4, §5

[3] = test system: Salmonella typhimurium TA100; test: Ames test (reverse mutation test), pre-incubation method, strain TA100; format: cell-based; details: TA100; in the presence of S9 mix
Procedure: as §1, §2, §3, §4, §5

[4] = test system: Salmonella typhimurium TA1535; test: Ames test (reverse mutation test), pre-incubation method, strain TA1535; format: cell-based; details: TA1535
Procedure: as §1, §2, §3, §4, §5

Escherichia coli WP2uvrA = test: Ames test (reverse mutation test), pre-incubation method, strain WP2uvrA; format: cell-based; details: WP2uvrA; in the absence of S9 mix
Excerpt: as §1
Two plates per treatment were used.

Row | SMILES | potential to induce reverse mutations [1] | potential to induce reverse mutations ([2]; in the absence of S9 mix) | potential to induce reverse mutations ([2]; in the presence of S9 mix) | potential to induce reverse mutations [3] | potential to induce reverse mutations ([4]; in the presence of S9 mix) | potential to induce reverse mutations (Escherichia coli WP2uvrA) | potential to induce reverse mutations ([4]; in the absence of S9 mix)
1 | Nc1cc(-c2cccc(OCC(F)(F)F)c2)n(-c2ccc(F)cc2)n1 [Metabolite B, reference compound] | had potential to induce reverse mutations | had potential to induce reverse mutations | had potential to induce reverse mutations | had potential to induce reverse mutations | had potential to induce reverse mutations | – | –
2 | Cc1ccc(-n2nc(N)cc2-c2cccc(OCC(F)(F)F)c2)cc1 [Metabolite C, reference compound] | had potential to induce reverse mutations | – | had potential to induce reverse mutations | had potential to induce reverse mutations | – | had potential to induce reverse mutations | –
3 | Nc1cc(-c2cccc(OC(F)(F)F)c2)n(-c2cccc(F)c2)n1 [Metabolite D, reference compound] | – | – | – | had potential to induce reverse mutations | – | – | had potential to induce reverse mutations
4 | Cc1cccc(-n2nc(N)cc2-c2cccc(OC(F)(F)F)c2)c1 [Metabolite E, reference compound] | had potential to induce reverse mutations | – | had potential to induce reverse mutations | had potential to induce reverse mutations | – | – | –
